Laboratory results: patent publication US11649212B2, “Inhibitors of indoleamine 2,3-dioxygenase and methods of their use” (BRISTOL-MYERS SQUIBB COMPANY, priority 2017, dated 2023)

Target: T1, Indoleamine 2,3-Dioxygenase (IDO) (Homo sapiens, UniProt P14902)
T1 construct: endogenous in cells; host or cells: HeLa (ATCC CCL-2), stimulated with IFNγ 25 ng/mL
Test: HeLa cell-based indoleamine 2,3-dioxygenase (IDO) assay (kynurenine production)
Conditions: HeLa cells, IFNγ 25 ng/mL, 48 hour incubation, kynurenine absorbance at 480 nm
Experimental: Assessment of Inhibitor Activity in HeLa Cell-Based Indoleamine 2,3-Dioxygenase (IDO) Assay:
HeLa (ATCC® CCL-2) cells were obtained from the ATCC® and cultured in Dulbecco's Modified Eagle Medium supplemented with 4.5 g/L glucose, […] (#10-013-CV, Corning), 2 mM L-alanyl-L-glutamine dipeptide (#35050-061, Gibco), 100U/mL penicillin, 100 μg/mL streptomycin (#SV30010, HyClone) and 10% fetal bovine serum (#SH30071.03 HyClone). Cells were maintained in a humidified incubator at 37° C. in 5% CO2.
IDO activity was assessed as a function of kynurenine production as follows: HeLa cells were seeded in a 96-well culture plate at a density of 5,000 cells/well and allowed to equilibrate overnight. After 24 hours, the media was aspirated and replaced with media containing IFNγ (#285-IF/CF, R&D Systems) at a final concentration of 25 ng/mL. A serial dilution of each test compound was added to the cells in a total volume of 200 μL of culture medium. After a further 48 hour incubation, 170 μL of supernatant was transferred from each well to a fresh 96-well plate. 12.1 μL of 6.1N trichloroacetic acid (#T0699, Sigma-Aldrich) was added to each well and mixed, followed by incubation at 65° C. for 20 minutes to hydrolyze N-formylkynurenine, the product of indoleamine 2,3-dioxygenase, to kynurenine. The reaction mixture was then centrifuged for 10 mins at 500×g to sediment the precipitate. 100 μL of the supernatant was transferred from each well to a fresh 96-well plate. 100 μl of 2% (w/v) p-dimethylaminobenzaldehyde (#15647-7, Sigma-Aldrich) in acetic acid (#A6283, Sigma-Aldrich) was added to each well mixed and incubated at room temperature for 20 mins. Kynurenine concentrations were determined by measuring absorbance at 480 nm and calibrating against an L-kynurenine (#K8625, Sigma-Aldrich) standard curve using a SPECTRAMAX® M2e microplate reader (Molecular Devices). The percentage activity at each inhibitor concentration was determined and IC50 values assessed using nonlinear regression.

T1 sequence (P14902 whole entry): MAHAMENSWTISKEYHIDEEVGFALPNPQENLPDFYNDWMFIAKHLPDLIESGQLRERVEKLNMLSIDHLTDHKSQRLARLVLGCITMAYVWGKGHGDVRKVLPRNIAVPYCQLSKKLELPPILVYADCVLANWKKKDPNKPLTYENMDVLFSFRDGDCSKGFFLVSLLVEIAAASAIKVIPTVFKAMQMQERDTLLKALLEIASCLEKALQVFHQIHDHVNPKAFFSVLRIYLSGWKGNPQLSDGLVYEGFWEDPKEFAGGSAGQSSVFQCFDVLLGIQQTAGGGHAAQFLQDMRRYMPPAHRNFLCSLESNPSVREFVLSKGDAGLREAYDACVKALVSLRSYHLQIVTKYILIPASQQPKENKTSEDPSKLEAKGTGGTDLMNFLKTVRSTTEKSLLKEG

Compound | IC50 [µM]
C[C@@H](C(=O)NC12CC3CC(C)(CC(C)(C3)C1)C2)[C@H]1CC[C@@H](c2ccnc3ccc(F)cc32)CC1 [Example 23, (cis)-(2R)—N-(3,5-dimethyladamantan-1-yl)-2-(4-(6-fluoroquinolin-4-yl)cyclohexyl)propanamide] | 0.014
C[C@@H](NC(=O)C1CC(F)(F)C1)[C@H]1CC[C@@H](c2ccnc3ccc(F)cc32)CC1 [Example 7, 3,3-difluoro-N-((R)-1-((1s,4S)-4-(6-fluoroquinolin-4-yl)cyclohexyl)ethyl)cyclobutanecarboxamide] | 0.55
C[C@@H](NC(=O)C12CCC(Cl)(CC1)CC2)[C@H]1CC[C@@H](c2ccnc3ccc(F)cc32)CC1 [Example 1, 4-chloro-N—((R)-1-((cis)-4-(6-fluoroquinolin-4-yl)cyclohexyl)ethyl)bicyclo [2.2.2]octane-1-carboxamide] | 0.024
C[C@@H](NC(=O)C1CCCCC1)[C@H]1CC[C@@H](c2ccnc3ccc(F)cc32)CC1 [Example 5, N-((R)-1-((1s,4S)-4-(6-fluoroquinolin-4-yl)cyclohexyl)ethyl)cyclohexanecarboxamide] | 0.011
C[C@@H](NC(=O)N1CCN(c2ccccc2)CC1)[C@H]1CC[C@@H](c2ccnc3ccc(F)cc32)CC1 [Example 4, N—((R)-1-((1s,4 S)-4-(6-Fluoroquinolin-4-yl)cyclohexyl)ethyl)-4-phenylpiperazine-1-carboxamide] | 0.018
C[C@@H](NC(=O)C1CCN(c2ccc(F)cc2)CC1)[C@H]1CC[C@@H](c2ccnc3ccc(F)cc32)CC1 [Example 2, 1-(4-Fluorophenyl)-N—((R)-1-((1s,4S)-4-(6-fluoroquinolin-4-yl)cyclohexyl)ethyl) piperidine-4-carboxamide] | 0.022

Now from value to molecule:

IC50 [µM] | Compound
1 | CCC(C(=O)NC1[C@H]2C[C@@H]3C[C@@H](C[C@H]1C3)C2)C1CCN(Cc2cccc(C(F)(F)F)n2)CC1 (single isomer, unassigned) [Example 22, N-(Adamantan-2-yl)-2-(1-((6-(trifluoromethyl)pyridin-2-yl)methyl)piperidin-4-yl)butanamide]
0.031 | CC1(CC(=O)NC23CC4CC(CC(C4)C2)C3)CCN(c2ccnc3ccc(F)cc23)CC1 [Example 16, N-((3s,5s,7s)-Adamantan-1-yl)-2-(1-(6-fluoroquinolin-4-yl)-4-methylpiperidin-4-yl)acetamide]
0.02 | CCC(C(=O)NC1[C@H]2C[C@@H]3C[C@@H](C[C@H]1C3)C2)C1CCN(Cc2cccc(C(F)(F)F)n2)CC1 (single isomer, unassigned) [Example 21, N-(Adamantan-2-yl)-2-(1-((6-(trifluoromethyl)pyridin-2-yl)methyl)piperidin-4-yl)butanamide]
0.066 | COc1ccc(CN(C(=O)NC2CCCCC2)[C@H]2CC[C@H](c3ccccc3)CC2)cc1 [Example 13, 3-cyclohexyl-1-(4-methoxybenzyl)-1-((1r,4r)-4-phenylcyclohexyl)urea]

Target: T2, human IDO1 (Homo sapiens, UniProt P14902)
T2 construct: expressed in transfected cells
Test: IDO inhibition assay in human IDO1/HEK293 cells
Assay type: cell-based
Conditions: HEK293 cells stably expressing human IDO1, 20 hours incubation, absorbance at 490 nm; read-out: IDO1 HEK Human IC50
Experimental: HEK293 cells were transfected with a pCDNA-based mammalian expression vector harboring human IDO1 cDNA (NM 002164.2) by electroporation. They were cultured in medium (DMEM with 10% FBS) containing 1 mg/ml G418 for two weeks. Clones of HEK293 cells that stably expressed human IDO1 protein were selected and expanded for IDO inhibition assay.
The human IDO1/HEK293 cells were seeded at 10,000 cells per 50 μL per well with RPMI/phenol red free media contains 10% FBS in a 384-well black wall clear bottom tissue culture plate (Matrix Technologies LLC) 100 nL of certain concentration of compound was then added to each well using ECHO liquid handling systems. The cells were incubated for 20 hours in 37° C. incubator with 5% CO2.
The compound treatments were stopped by adding trichloroacetic acid (Sigma-Aldrich) to a final concentration at 0.2%. The cell plate was further incubated at 50° C. for 30 minute. The equal volume supernatant (20 μL) and 0.2% (w/v) Ehrlich reagent (4-dimethylaminobenzaldehyde, Sigma-Aldrich) in glacial acetic acid were mixed in a new clear bottom 384-well plate. This plate was then incubated at room temperature for 30 minute. The absorbance at 490 nm was measured on Envision plate reader.
Compound IC50 values were calculated using the counts of 500 nM of a reference standard treatment as one hundred percent inhibition, and counts of no compound but DMSO treatment as zero percent inhibition.

T2 sequence (P14902 whole entry): as above

Compound | IC50 [µM]
C[C@H](NC(=O)C1CCC(O)CC1)C1CCC(c2ccnc3ccc(F)cc23)CC1 (stereo partly drawn) [Example 11, (1s,4S)-N-((R)-1-((1s,4S)-4-(6-fluoroquinolin-4-yl)cyclohexyl)ethyl)-4-hydroxycyclohexane carboxamide] | 0.75
COc1ccc(N2CCC(C(=O)N[C@H](C)[C@H]3CC[C@@H](c4ccnc5ccc(F)cc54)CC3)CC2)cc1 [Example 3, N—((R)-1-((1s,4S)-4-(6-Fluoroquinolin-4-yl)cyclohexyl)ethyl)-1-(4-methoxyphenyl)piperidine-4-carboxamide] | 0.8
C[C@@H](NC(=O)[C@H]1CC[C@H](O)CC1)[C@H]1CC[C@@H](c2ccnc3ccc(F)cc32)CC1 [Example 12, (1r,4R)-N-((R)-1-((1s,4S)-4-(6-fluoroquinolin-4-yl)cyclohexyl)ethyl)-4-hydroxycyclohexane carboxamide] | 0.17
C[C@@H](NC(=O)[C@H]1C[C@@H](F)C1)[C@H]1CC[C@@H](c2ccnc3ccc(F)cc32)CC1 [Example 9, (1s,3S)-3-fluoro-N-((R)-1-((1s,4S)-4-(6-fluoroquinolin-4-yl)cyclohexyl)ethyl)cyclobutanecarboxamide] | 0.62
C[C@@H](NC(=O)C1CCC1)[C@H]1CC[C@@H](c2ccnc3ccc(F)cc32)CC1 [Example 10, N-((R)-1-((1s,4S)-4-(6-fluoroquinolin-4-yl)cyclohexyl)ethyl) cyclobutanecarboxamide] | 0.19
COc1ccc(CN(C(=O)NC2CC2)[C@H]2CC[C@H](c3ccccc3)CC2)cc1 [Example 15, 3-cyclopropyl-1-(4-methoxybenzyl)-1-((1r,4r)-4-phenylcyclohexyl)-urea] | 0.24
C[C@@H](NC(=O)C1CC1)[C@H]1CC[C@@H](c2ccnc3ccc(F)cc32)CC1 [Example 6, N-((R)-1-((1s,4S)-4-(6-fluoroquinolin-4-yl)cyclohexyl)ethyl)cyclopropanecarboxamide] | 0.81

Further lines, results first:

IC50 [µM] | Compound
0.39 | CC1(CC(=O)N[C@@]23C[C@@H]4C[C@@H](C[C@@](O)(C4)C2)C3)CCN(c2ccnc3ccc(F)cc23)CC1 [Example 17, 2-(1-(6-Fluoroquinolin-4-yl)-4-methylpiperidin-4-yl)-N-((1r,3s,5R,7S)-3-hydroxyadamantan-1-yl)acetamide]
1.8 | CCCC(C(=O)NC12CC3CC(CC(C3)C1)C2)N1CCN(c2ccnc3ccc(F)cc23)CC1 (single isomer, unassigned) [Example 19]
1.9 | CCCC(C(=O)NC12CC3CC(CC(C3)C1)C2)N1CCN(c2ccnc3ccc(F)cc23)CC1 (single isomer, unassigned) [Example 20]
0.18 | CC1(CC(=O)NC23CC4CC(CC(C4)C2)C3)CCN(c2ccnc(C(F)(F)F)c2)CC1 [Example 18, N-((3 s,5 s, 7 s)-Adamantan-1-yl)-2-(4-methyl-1-(2-(trifluoromethyl)pyridin-4-yl)piperidin-4-yl)acetamide]
0.12 | COc1ccc(CN(C(=O)NC2CCCC2)[C@H]2CC[C@H](c3ccccc3)CC2)cc1 [Example 14, 3-cyclopentyl-1-(4-methoxybenzyl)-1-((1r,4r)-4-phenylcyclohexyl)-urea]
0.57 | C[C@@H](NC(=O)C1CC(F)C1)C1CCC(c2ccnc3ccc(F)cc23)CC1 (stereo partly drawn) [Example 8, (1r,3R)-3-fluoro-N-((R)-1-((1s,4S)-4-(6-fluoroquinolin-4-yl)cyclohexyl)ethyl)cyclobutanecarboxamide]
